The record followed here is patent US12186317B2, “Inhibitors of alpha-amino-beta-carboxymuconic acid semialdehyde decarboxylase” (TES Pharma S.r.l., priority 2018, dated 2025).

In general, IC50 refers to the midpoint of a concentration-inhibition curve.

A value given as a limit tells only on which side of the number the result lay.

For the experiment, the target named is T1, hACMSD (ACMSD1) (Homo sapiens, UniProt Q8TDX5).
T1 construct: made in house; host or cells: Pichia pastoris
T1 sequence (Q8TDX5 whole entry): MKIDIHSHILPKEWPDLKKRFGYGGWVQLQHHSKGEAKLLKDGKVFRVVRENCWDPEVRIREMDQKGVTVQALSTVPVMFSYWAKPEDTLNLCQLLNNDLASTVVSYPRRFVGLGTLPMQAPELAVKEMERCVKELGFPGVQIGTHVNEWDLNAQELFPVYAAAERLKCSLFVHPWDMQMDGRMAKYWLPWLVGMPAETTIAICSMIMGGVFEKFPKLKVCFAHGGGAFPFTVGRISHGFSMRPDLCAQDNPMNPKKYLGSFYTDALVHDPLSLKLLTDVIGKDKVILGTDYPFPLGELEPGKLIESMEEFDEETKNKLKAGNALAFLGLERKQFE
Nature of the experiment: Determination of ACMSD1 inhibition, spectrophotometrical in vitro assay (conversion of 3OH-anthranilic acid into ACMS). In kind it is biochemical. As to conditions: HAA concentration of 10 μM; recombinant ACMSD1 from Pichia pastoris; 25° C.; absorbance at 360 nm. How it is done: The activity of compounds as inhibitors of ACMSD1 is determined in a spectrophotometrical in vitro assay. The pre-assay mixture is incubated and a compound of Formula (I) or (II), or a pharmaceutically acceptable salt thereof, and ACMSD1 solution is then added. The effect of ACMS concentration on the enzyme activity is investigated by varying 3-hydroxyanthranilic acid (30H-HA) concentration in the pre-assay mixture. Kinetic parameters are calculated from the initial velocity data using a Lineweaver-Burk plot.
The pre-assay mixture consisting of 3-hydroxyanthranilic acid (30H-HA), 3-hydroxyanthranilic acid, 3,4-diOxygenase (HAO), and a dialyzed crude extract of E. coli BL21 (DE3) cells expressing the recombinant enzyme, was incubated at 25° C. with monitoring of the increase in absorbance at 360 nm due to the formation of ACMS from 30H-HA. After the reaction was completed within ˜2 mins, an aliquot of ACMSD1 solution (prepared and purified from Pichia pastoris overexpressing the recombinant enzyme) was added, and the decrease in absorbance at 360 nm was followed at 15 second intervals. The effect of ACMS concentration on the enzyme activity was investigated by varying 30H-HA concentration from 2 to 20 μM. Kinetic parameters were calculated from the initial velocity data by using the Lineweaver-Burk plot.
The rate of the decrease in absorbance caused by ACMSD1 was calculated by subtracting that of the control reaction mixture without ACMSD from that described above. One unit of ACMSD activity was indicated as the amount of enzyme that converts 1 mmol of ACMS per minute at 25° C.
The enzymatic activity was determined at a HAA concentration of 10 μM in the presence of the compounds in Table 1 below. […] In Table 1, A is <0.1 μM; B is 0.1 to 1 μM; C is 1 to 10 μM; and D is >10 μM.
In the case of `N#Cc1c(Cc2ccccc2)nc(SCC(=O)O)[nH]c1=O` [I-30, (4-Benzyl-5-cyano-6-oxo-1,6-dihydro-pyrimidin-2-ylsulfanyl)-acetic acid], the IC50 fell in the range of 100 to 1000 nM.

In the case of `N#Cc1c(-c2cccs2)nc(SCc2cccc(CC(=O)O)c2)nc1N1CCNCC1` [I-16, [3-(5-Cyano-4-piperazin-1-yl-6-thiophen-2-yl-pyrimidin-2-ylsulfanylmethyl)-phenyl]-acetic acid], the IC50 was above 10000 nM.

As to `N#Cc1c(C(F)(F)F)cc(=O)[nH]c1SCc1cccc(CC(=O)O)c1` [I-36, [3-(3-cyano-6-oxo-4-trifluoromethyl-1,6-dihydro-pyridin-2-ylsulfanylmethyl)-phenyl]-acetic acid], the IC50 lay in the range of 100 to 1000 nM.

As to `CNc1nc(SCc2cccc(CC(=O)O)c2)nc(-c2cccs2)c1C#N` [I-9, [3-(5-Cyano-4-methylamino-6-thiophen-2-yl-pyrimidin-2-ylsulfanylmethyl)-phenyl]-acetic acid], the 50% inhibitory concentration (IC50) was 100 to 1000 nM.

On to `Cn1nnc(-c2cccc(CSc3nc(-c4cccs4)c(C#N)c(=O)[nH]3)c2)n1` [I-14, 2-[3-(2-Methyl-2H-tetrazol-5-yl)-benzylsulfanyl]-6-oxo-4-thiophen-2-yl-1,6-dihydro-pyrimidine-5-carbonitrile], for which the IC50 was in the range of 1000 to 10000 nM.

On to `N#Cc1c(-c2cccs2)nc(N[C@H]2CC[C@H](C(=O)O)CC2)[nH]c1=O` [I-46], for which the IC50 is above 10000 nM.
